Measured values as given in US9353110B2, “Fused heterocyclic compound” (Sumitomo Chemical Company, Limited, priority 2011, dated 2016).

Legend:
Assay type in all cases: in vivo
Musca domestica = experiment: Test Example 8: filter paper with sucrose bait against Musca domestica; details: 500 ppm test solution, 0.7 ml on filter paper, 10 female imagoes, after 24 hours
Experimental: Each test solution was prepared by diluting a formulation containing any of the present compounds 1, 3-5, 8, 15-16, 19-20, 23, 27, 29, 37, 40, 44, 48, 60-61, 64, 72, 74, 518, 523 and 528 as obtained in Formulation Example 5, with water so as to give 500 ppm of the concentration of the active ingredient.
(§1) A filter paper having a diameter of 5.5 cm was spread on the bottom of a polyethylene cup having a diameter of 5.5 cm and each test solution (0.7 ml) was added dropwise onto the filter paper. As a bait sucrose (30 mg) was uniformly placed on the filter paper. Into the polyethylene cup, 10 female imagoes of Musca domestica were released and the cup was sealed with a lid. After 24 hours, the number of surviving Musca domestica was examined and the death rate of the pest was calculated.

[1] = test system: Haemaphysalis longicornis; experiment: Test Example 11: coated screw tube against nymphal ticks Haemaphysalis longicornis; details: 2 mg compound coated on inner wall of screw tube, 5 non-blood-sucking nymphal ticks, after 2 days
Experimental: Each 2 mg of the present compounds 1, 5, 8, 15-16, 19, 23, 25-27, 30, 37, 40, 49, 61, 63, 99 and 516 was put into a screw tube (Maruemu No. 5; 27×55 mm). Acetone (0.2 ml) was added thereto and sealed with a cap. After dissolving the compound in acetone, the screw tube was rotated and inverted to uniformity coat the solution onto the whole inner wall of the tube. After removing the cap, the solution was air-dried for about 2 hours. Then, non-blood-sucking nymphal ticks, Haemaphysalis longicornis (5 ticks/group) were released into the tube, and the tube was sealed with the cap. After 2 days, the number of dead tick was counted, and a death rate was calculated according to the following equation: Death rate (%)=(Number of dead tick/Number of tested tick)×100

Blattalla germanica = experiment: Test Example 9: filter paper with sucrose bait against Blattalla germanica; details: 500 ppm test solution, 0.7 ml on filter paper, 2 male imagoes, after 6 days
Experimental: Each test solution was prepared by diluting a formulation containing any of the present compounds 4-5, 19-20, 28-29, 40, 44, 48, 60, 71-74, 89, 523 and 528 as obtained in Formulation Example 5, with water so as to give 500 ppm of the concentration of the active ingredient.
as §1, with “2 male” for “10 female”, “Blattalla germanica” for “Musca domestica”, “6 days,” for “24 hours,”

| Structure (SMILES) | death rate (Musca domestica) [%] | death rate [1] [%] | death rate (Blattalla germanica) [%] |
| --- | --- | --- | --- |
| CCSc1cccnc1-c1nc2cc(C(F)(F)F)cnc2n1C [compound 1] | 100 | 100 | – |
| CCS(=O)(=O)c1cccnc1-c1nc2cc(C(F)(F)F)cnc2n1C [compound 3] | 100 | – | – |
| CCSc1cc(C(F)(F)F)cnc1-c1nc2cc(C(F)(F)F)cnc2n1C [compound 4] | – | – | 100 |
| CCS(=O)(=O)c1cc(C(F)(F)F)cnc1-c1nc2cc(C(F)(F)F)cnc2n1C [compound 5] | 100 | 100 | 100 |
| CCS(=O)(=O)c1cccnc1-c1nc2cc(C(F)(F)C(F)(F)F)cnc2n1C [compound 8] | 100 | 100 | – |
| CCS(=O)(=O)c1cccnc1-c1nc2cc(SC(F)(F)F)cnc2n1C [compound 15] | 100 | 100 | – |
| CCS(=O)(=O)c1cccnc1-c1nc2cc(S(=O)(=O)C(F)(F)F)cnc2n1C [compound 16] | 100 | 100 | – |
| CCS(=O)(=O)c1cc(C(F)(F)F)cnc1-c1nc2cc(C(F)(F)C(F)(F)F)cnc2n1C [compound 19] | 100 | 100 | 100 |
| CCS(=O)(=O)c1cccnc1-c1nc2cc([S+]([O-])C(F)(F)F)cnc2n1C (stereo not shown) [compound 20] | 100 | – | 100 |
| CCS(=O)(=O)c1cc(C(F)(F)F)cnc1-c1nc2cc(S(=O)(=O)C(F)(F)F)cnc2n1C [compound 25] | – | 100 | – |
| CCS(=O)(=O)c1cccnc1-c1nc2cc(C(F)(F)C(F)(F)F)ccc2n1C [compound 27] | 100 | 100 | – |
| CCSc1cc(C(F)(F)F)cnc1-c1nc2cc(SC(F)(F)F)cnc2n1C [compound 28] | – | – | 100 |
| CCSc1cccnc1-c1nc2cc(C(F)(F)F)ccc2n1C [compound 30] | – | 100 | – |
| CCS(=O)(=O)c1cc(C(F)(F)F)cnc1-c1nc2cc(C(F)(F)C(F)(F)F)ccc2n1C [compound 40] | 100 | 100 | 100 |
| CCS(=O)(=O)c1cc(C(F)(F)F)cnc1-c1nc2cc(SC(F)(F)F)cnc2n1C [compound 44] | 100 | – | 100 |
| CCS(=O)(=O)c1cc(C(F)(F)F)cnc1-c1nc2cc(C(F)(F)F)c[n+]([O-])c2n1C [compound 48] | 100 | – | 100 |
| CCSc1cccnc1-c1nc2cc(OC(F)(F)F)ccc2n1C [compound 49] | – | 100 | – |
| CCS(=O)(=O)c1cc(C(F)(F)F)cnc1-c1nc2cc([S+]([O-])C(F)(F)F)cnc2n1C (stereo not shown) [compound 60] | 100 | – | 100 |
| CCSc1cccnc1-c1nc2cc(SC(F)(F)F)ccc2n1C [compound 61] | 100 | 100 | – |
| CCS(=O)(=O)c1cccnc1-c1nc2cc(SC(F)(F)F)ccc2n1C [compound 63] | – | 100 | – |
| CCS(=O)(=O)c1cccnc1-c1nc2cc(S(=O)(=O)C(F)(F)F)ccc2n1C [compound 64] | 100 | – | – |
| CCSc1cc(C(F)(F)C(F)(F)F)cnc1-c1nc2cc(C(F)(F)F)cnc2n1C [compound 71] | – | – | 100 |
| CCS(=O)(=O)c1cc(C(F)(F)C(F)(F)F)cnc1-c1nc2cc(C(F)(F)F)cnc2n1C [compound 72] | 100 | – | – |
| CCS(=O)(=O)c1cc(C(F)(F)C(F)(F)F)cnc1-c1nc2cc(C(F)(F)C(F)(F)F)cnc2n1C [compound 74] | 100 | – | 100 |
| CCS(=O)(=O)c1cc(C(F)(F)F)cnc1-c1nc2cc(C(F)(F)F)c(Cl)nc2n1C [compound 89] | – | – | 100 |
| CCS(=O)(=O)c1cc(C(F)(F)F)cnc1-c1nc2cc(C(F)(F)F)c(N(C)C)nc2n1C [compound 99] | – | 100 | – |
| CCSc1cccnc1-c1nc2cc(C(F)(F)F)cc(Sc3ccccc3)c2n1C [compound 516] | – | 100 | – |
| CCS(=O)(=O)c1cccnc1-c1nc2cc(C(F)(F)F)cc(S(=O)(=O)CC(F)(F)F)c2n1C [compound 518] | 100 | – | – |
| CCS(=O)(=O)c1cc(C(F)(F)F)cnc1-c1nc2cc(C(F)(F)C(F)(F)F)c[n+]([O-])c2n1C [compound 523] | 100 | – | 100 |
| CCS(=O)(=O)c1cc(C(OC)(OC)OC)cnc1-c1nc2cc(C(F)(F)C(F)(F)F)cnc2n1C [compound 528] | 100 | – | 100 |
